Measurements reported in ChEMBL document CHEMBL1201862, “PubChem BioAssay data set” (2004).
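All cell lines were grown in 96-well plates and treated with compound for 48 hours. GI50: concentration for 50% inhibition of growth.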 The source made the active and inactive calls. Rule as the data show it: active = GI50 up to about 1.1 µM and inactive = higher.

Assays:
Test in all cases: DTP human tumour cell line panel, 48 h
[1] = test system: SNB-19
[2] = test system: 786-0
[3] = test system: RPMI-8226
[4] = test system: RXF 393
[5] = test system: ACHN
[6] = test system: NCI-H23
[7] = test system: CCRF-CEM
[8] = test system: CAKI-1
[9] = test system: EKVX
[10] = test system: SN12C
[11] = test system: A498
[12] = test system: NCI-H460
[13] = test system: HCT-15
[14] = test system: U-251
[15] = test system: KM12
[16] = test system: SF-268

SMILES	GI50 [1]	GI50 [2]	GI50 [3]	GI50 [4]	GI50 [5]	GI50 [6]	GI50 [7]	GI50 [8]	GI50 [9]	GI50 [10]	GI50 [11]	GI50 [12]	GI50 [13] [µM]	GI50 [14]	GI50 [15]	GI50 [16]
NCc1c(C(N)=O)ncn1Cc1ccccc1	> 100 µM (inactive)	> 100 µM (inactive)	> 100 µM (inactive)	> 100 µM (inactive)	> 100 µM (inactive)	> 100 µM (inactive)	> 100 µM (inactive)	> 100 µM (inactive)	> 100 µM (inactive)	> 100 µM (inactive)	> 100 µM (inactive)	> 100 µM (inactive)	> 100	> 100 µM (inactive)	–	–
CC(C)(C)c1cc(O)c2c(c1O)C(=O)CCC2	32.7 µM (inactive)	32.1 µM (inactive)	21.1 µM (inactive)	19.1 µM (inactive)	50.2 µM (inactive)	28.9 µM (inactive)	35.2 µM (inactive)	22.5 µM (inactive)	54.8 µM (inactive)	41.8 µM (inactive)	40.6 µM (inactive)	48 µM (inactive)	40.8	50.7 µM (inactive)	–	–
Nc1nc(N)c(-c2ccccc2)c(C(=O)Nc2nccs2)n1	> 100 µM (inactive)	> 100 µM (inactive)	–	> 100 µM (inactive)	> 100 µM (inactive)	> 100 µM (inactive)	> 100 µM (inactive)	> 100 µM (inactive)	> 100 µM (inactive)	> 100 µM (inactive)	–	> 100 µM (inactive)	> 100	> 100 µM (inactive)	> 100 µM (inactive)	> 100 µM (inactive)
CCOC(=O)NC(=O)c1cn(CCN2CCN(C(=O)CCCCCCCCCCNc3ncnc4[nH]cnc34)CC2)c(=O)[nH]c1=O	> 100 µM (inactive)	> 100 µM (inactive)	94 µM (inactive)	> 100 µM (inactive)	37.8 µM (inactive)	> 100 µM (inactive)	> 100 µM (inactive)	79.8 µM (inactive)	> 100 µM (inactive)	> 100 µM (inactive)	–	> 100 µM (inactive)	> 100	> 100 µM (inactive)	> 100 µM (inactive)	13.1 µM (inactive)
CCC(=O)OC[n+]1ccc2c(C)c3[nH]c4ccc(OC)cc4c3c(C)c2c1	1.57 µM (inactive)	0.176 µM (active)	0.182 µM (active)	0.166 µM (active)	0.0485 µM (active)	0.22 µM (active)	0.0685 µM (active)	0.188 µM (active)	–	< 0.01 µM (active)	1.06 µM (active)	0.0199 µM (active)	–	0.0547 µM (active)	0.0875 µM (active)	0.24 µM (active)
CC(=O)N(C)c1ccc2c(ccc[n+]2[O-])c1[N+](=O)[O-]	–	> 100 µM (inactive)	> 100 µM (inactive)	> 100 µM (inactive)	> 100 µM (inactive)	> 100 µM (inactive)	> 100 µM (inactive)	> 100 µM (inactive)	> 100 µM (inactive)	> 100 µM (inactive)	> 100 µM (inactive)	> 100 µM (inactive)	> 100	> 100 µM (inactive)	> 100 µM (inactive)	> 100 µM (inactive)
COC(=O)C1N=CSCC1(C)O (configuration not stated)	> 100 µM (inactive)	> 100 µM (inactive)	> 100 µM (inactive)	> 100 µM (inactive)	> 100 µM (inactive)	> 100 µM (inactive)	> 100 µM (inactive)	> 100 µM (inactive)	> 100 µM (inactive)	> 100 µM (inactive)	> 100 µM (inactive)	> 100 µM (inactive)	> 100	–	> 100 µM (inactive)	> 100 µM (inactive)
CCCCCCCCCCCCCCCCCC(=O)NCC(COP(=O)([O-])OCC[N+](C)(C)C)OC (configuration not stated)	1.91 µM (inactive)	1.5 µM (inactive)	1.63 µM (inactive)	0.652 µM (active)	10.8 µM (inactive)	14.3 µM (inactive)	2.02 µM (inactive)	2.44 µM (inactive)	16.3 µM (inactive)	3.85 µM (inactive)	3.03 µM (inactive)	1.27 µM (inactive)	1.95	1.87 µM (inactive)	0.766 µM (active)	5.2 µM (inactive)
